Reference: paper PMC4503722, “Novel Phenotypic Outcomes Identified for a Public Collection of Approved Drugs from a Publicly Accessible Panel of Assays” (PLoS ONE, 2015)
Where a SMILES comes first, the peptide text is derived from it. Bridges are numbered along the chain shown (N, C = ends). [ ]: non-standard residue; d: D form. hArg = N=C(N)NCCCC[C@H](N)C(=O)O; Mpa = O=C(O)CCS

Columns and labels:
[1] = system: ECFC/ADSC co-culture cell nuclei number; settings: for IC50: read-out: VEGF_ADSC\ECFC Angio Hoechst NucArea summarized IC50
[2] = system: endothelial tube formation in co-cultures of ECFCs and ADSCs treated with VEGF; test: cells; format: cell-based, human; settings: for IC50: read-out: VEGF_ADSC\ECFC Angio CD31 TubeArea summarized IC50
[3] = system: HeLa cells; test: cells; format: cell-based; settings: for Hela CellCycMod PI 2N IC50/EC50: assay number 14; for Hela CellCycMod PI S Phase IC50/EC50: assay number 15; for Hela CellCycMod PI 4N IC50/EC50: assay number 16; for Hela CellCycMod PI MI IC50/EC50: assay number 17; for Hela CellCycMod PI Cell Number IC50/EC50: assay number 18

SMILES	VEGF_ADSC\ECFC Angio Hoechst NucArea IC50/EC50 [1] [µM]	VEGF_ADSC\ECFC Angio CD31 TubeArea IC50/EC50 [2] [µM]	other results
CC(C)=CCC/C(C)=C/CC/C(C)=C/C(=O)OCC(=O)[C@@]1(O)CC[C@H]2[C@@H]3CCC4=CC(=O)C=C[C@]4(C)[C@H]3[C@@H](O)C[C@@]21C [NCGC00261967-01]	> 10	3.3384	Hela CellCycMod PI 2N IC50/EC50 [3]: > 10 µM; Hela CellCycMod PI S Phase IC50/EC50 [3]: > 10 µM; Hela CellCycMod PI 4N IC50/EC50 [3]: > 10 µM; Hela CellCycMod PI MI IC50/EC50 [3]: > 10 µM; Hela CellCycMod PI Cell Number IC50/EC50 [3]: 0.05952 µM
Cc1ccc(Nc2nccc(N(C)c3ccc4c(C)n(C)nc4c3)n2)cc1S(N)(=O)=O [NCGC00188865-03]	> 10	0.0465	Hela CellCycMod PI 2N IC50/EC50 [3]: > 10 µM; Hela CellCycMod PI S Phase IC50/EC50 [3]: > 10 µM; Hela CellCycMod PI 4N IC50/EC50 [3]: > 10 µM; Hela CellCycMod PI MI IC50/EC50 [3]: > 10 µM; Hela CellCycMod PI Cell Number IC50/EC50 [3]: > 10 µM
CCCCN(CCCC)CCC(O)c1cc2c(Cl)cc(Cl)cc2c2cc(C(F)(F)F)ccc12 (centres unmarked) [NCGC00179250-03]	> 10	> 10	
O=[N+]([O-])c1cc(I)c(O)c(I)c1 [NCGC00166241-02]			IC50 [1]: > 10 µM; IC50 [2]: > 10 µM
COC(=O)C1=C(C)NC(C)=C(C(=O)OCCN2CCN(C(c3ccccc3)c3ccccc3)CC2)C1c1cccc([N+](=O)[O-])c1 (centres unmarked) [NCGC00167493-04]			IC50/EC50, VEGF_ADSC\ECFC Angio Hoechst NucArea (assay number 3) [1]: > 10 µM; IC50/EC50, VEGF_ADSC\ECFC Angio CD31 TubeArea (assay number 2) [2]: > 10 µM
O=C1NC2CCCCN2C12CCN(CCCN1c3ccccc3CCc3ccc(Cl)cc31)CC2 (centres unmarked) [NCGC00183853-01]	> 10	> 10	
C#C[C@]1(OC(C)=O)CC[C@H]2[C@@H]3CCC4=CC(=NO)CC[C@@H]4[C@H]3CC[C@@]21CC (mixture of isomers) [NCGC00344561-01]	> 10	> 10	
CN(C)CCCN1c2ccccc2Sc2ccc(Cl)cc21 [NCGC00015273-19]			IC50 [1]: > 10 µM; IC50 [2]: > 10 µM
OC[C@@H](O)[C@@H](O)[C@H](O)[C@@H](O)CO [NCGC00164353-05]	> 10	> 10	
Cc1ccc(Nc2c(F)cccc2Cl)c(CC(=O)O)c1 [NCGC00181795-02]	> 10	> 10	
CC(=O)Oc1cccc2c1C(=O)c1c(OC(C)=O)cc(C(=O)O)cc1C2=O [NCGC00018274-05]			IC50/EC50, VEGF_ADSC\ECFC Angio Hoechst NucArea (assay number 3) [1]: > 10 µM; IC50/EC50, VEGF_ADSC\ECFC Angio CD31 TubeArea (assay number 2) [2]: > 10 µM
CC12CCC(CC1)C(C)(C)O2 [NCGC00091666-04]			IC50 [1]: > 10 µM; IC50 [2]: > 10 µM
COC(=O)N[C@H](C(=O)N[C@@H](Cc1ccccc1)[C@@H](O)CN(Cc1ccc(-c2ccccn2)cc1)NC(=O)[C@@H](NC(=O)OC)C(C)(C)C)C(C)(C)C [NCGC00182552-02]	> 10	> 10	
O=c1oc2c(O)c(O)cc3c(=O)oc4c(O)c(O)cc1c4c23 [NCGC00017245-10]	> 10	> 10	
O=C(Nc1ccc([N+](=O)[O-])cc1)Nc1ccc([N+](=O)[O-])cc1 [NCGC00166218-02]			IC50 [1]: > 10 µM; IC50 [2]: > 10 µM
C[C@H]1O[C@@H](O[C@H]2CC[C@@]3(C)[C@H](CC[C@@H]4[C@@H]3C[C@@H](O)[C@]3(C)[C@@H](C5=CC(=O)OC5)CC[C@]43O)C2)C[C@H](O)[C@@H]1O[C@H]1C[C@H](O)[C@H](O[C@H]2C[C@H](O)[C@H](O[C@@H]3O[C@H](CO)[C@@H](O)[C@H](O)[C@H]3O)[C@@H](C)O2)[C@@H](C)O1 [NCGC00159441-03]	0.2987	0.0614	
C[C@H]1O[C@@H](O[C@H]2[C@@H](O)C[C@H](O[C@H]3[C@@H](O)C[C@H](O[C@H]4CC[C@@]5(C)[C@H](CC[C@@H]6[C@@H]5CC[C@]5(C)[C@@H](C7=CC(=O)OC7)CC[C@]65O)C4)O[C@@H]3C)O[C@@H]2C)C[C@H](O)[C@@H]1O [NCGC00142623-04]			IC50 [1]: 0.103 µM; IC50 [2]: 0.011 µM
Oc1cc(Cl)ccc1Oc1ccc(Cl)cc1Cl [NCGC00159417-05]			IC50 [1]: 8.1 µM; IC50 [2]: > 10 µM
CC[C@]1(O)CC[C@H]2[C@@H]3CCC4=CCCC[C@@H]4[C@H]3CC[C@@]21C [NCGC00167514-02]	> 10	6.2451	
CC(C(O)c1ccccc1)N(C)C/C=C/c1ccccc1 (centres unmarked) [NCGC00249896-01]	> 10	> 10	
NC(=O)[C@@H]1CSSCCC(=O)N[C@@H](CCCCN=C(N)N)C(=O)NCC(=O)N[C@@H](CC(=O)O)C(=O)N[C@@H](Cc2c[nH]c3ccccc23)C(=O)N2CCC[C@H]2C(=O)N1 [NCGC00263524-01] ([Mpa][hArg]GDWPC-NH2; disulfide 1-7)	> 10	> 10	
O=C(c1ccc(F)cc1)C1CCN(CCn2c(=O)[nH]c3ccccc3c2=O)CC1 [NCGC00021146-09]	> 10	> 10	
CCCSS/C(CCO)=C(\C)N(C=O)Cc1cnc(C)nc1N [NCGC00167447-02]	> 10	> 10	
